Paper PMC10791743, “Selective CK1α degraders exert antiproliferative activity against a broad range of human cancer cell lines” (Nature Communications, 2024)

Tests used:
β-catenin = test: HiBiT-β-catenin stabilization, live-cell kinetic (HEK293 cells); type: cell-based
Procedure: Next, TMT-proteomics studies were performed to determine broader degradation selectivity profiles of our two lead compounds. […] As expected, increased protein levels of p53, p21, and β-catenin were detected in the treated cells. To investigate the relationship between β-catenin stabilization relative to CK1α degradation, kinetic monitoring of endogenously tagged HiBiT-β-catenin was performed in live cells and compared to our measurements of CK1α degradation kinetics. Treatment of cells with the lead compounds from each series led to dose-dependent stabilization of β-catenin levels with slower kinetics compared to the observed rapid degradation of CK1α. […]
White 96-well assay plates (Corning, Cat. # 3017) were seeded with 30,000 cells/well in growth media for CK1α-HiBiT HEK293 LgBiT stable and HiBiT-β-catenin HEK293 LgBiT stable and incubated overnight at 37 °C and 5% CO2. […] Luminescence was allowed to equilibrate for all plates for 2.5 h. […] Luminescence was read every 5 min for 24 h. At the end of all 24-h cycles, CellTiter Glo 2.0 (Promega, Cat. #G9242) was added to the plates, incubated for at least 10 min and luminescence was read using the GloMax Discover.
Relative protein level was determined based on normalization to the DMSO control and reported at Fractional RLUs. […]

PC-3 = test: cells; parameters: Oncolines panel cell viability, ATPlite 1Step luminescence, duplicate 9-point dose response, IC50; conditions: Homo sapiens, PC-3; 72 h viability; read-out: SJ3149

In the case of O=C1CCC(N2Cc3cc(Nc4noc5ccccc45)ccc3C2=O)C(=O)N1 (centres unmarked) [SJ3149], the “Time to detectable increase of β-catenin” value (β-catenin) is reported as at most 30 min and the IC50 (PC-3) is reported as over 31.6 µM.
